The results in this text go back to patent publication US12018016B2, “Aryl sulfonyl (hydroxy) piperidines as CCR6 inhibitors” (CHEMOCENTRYX, INC., priority 2021, dated 2024).

For this assay, the target named is T1, human CCR6 (Homo sapiens, UniProt P51684).
T1 construct: expressed in transfected cells; host or cells: Ba/F3 cells (mouse pro-B line)
T1 sequence (P51684 1-374): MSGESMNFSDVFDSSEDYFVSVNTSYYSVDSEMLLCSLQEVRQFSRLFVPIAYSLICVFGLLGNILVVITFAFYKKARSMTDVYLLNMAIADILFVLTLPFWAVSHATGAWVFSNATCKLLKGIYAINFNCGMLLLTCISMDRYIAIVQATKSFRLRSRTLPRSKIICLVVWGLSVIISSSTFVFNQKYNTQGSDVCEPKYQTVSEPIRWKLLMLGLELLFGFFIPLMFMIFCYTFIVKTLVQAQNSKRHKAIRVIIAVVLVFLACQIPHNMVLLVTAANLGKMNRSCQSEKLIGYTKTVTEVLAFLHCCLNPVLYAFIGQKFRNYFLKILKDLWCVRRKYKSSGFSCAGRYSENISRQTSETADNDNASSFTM
Kind of assay: Migration assay (chemotaxis, ChemoTX). To be noted: hCCR6-transfected Ba/F3 cells in human serum, migration to recombinant human CCL20 10 nM, 37° C. 45 minutes; read-out: Potency (IC50 value in the migration assay). The format is cell-based. The gist of the method:
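Ba/F3 cells transfected with human CCR6 and butyrate-primed for 24 h were suspended at 4 million/ml in human serum with compound, serially diluted from a 1 μM final top concentration. Cells migrated through a 5-μm polycarbonate membrane toward 10 nM human CCL20 for 45 min at 37 °C. Migrated cells were quantified by CyQUANT fluorescence.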
As to `NC(=O)c1ncc(-c2ccc(S(=O)(=O)N3CC[C@@H](Nc4ccc(C(F)(F)F)cn4)[C@@H](O)C3)cc2)cc1N` [Example 19, 3-Amino-5-(4-(((3S,4R)-3-hydroxy-4-((5-(trifluoromethyl)pyridin-2-yl)amino)piperidin-1-yl)sulfonyl)phenyl)picolinamide], the IC50 lay within 1 to 10 nM.
For the compound `Cc1cnc(C(N)=O)cc1-c1ccc(S(=O)(=O)N2CC[C@@H](Nc3ccc(C(F)(F)F)cn3)[C@@H](O)C2)cc1` [Example 20, 4-(4-(((3S,4R)-3-Hydroxy-4-((5-(trifluoromethyl)pyridin-2-yl)amino)piperidin-1-yl)sulfonyl)phenyl)-5-methylpicolinamide], the IC50 is less than 1 nM.
Regarding `COc1cc(-c2ccc(S(=O)(=O)N3CC[C@@H](Nc4ccc(C(F)(F)F)cn4)[C@@H](O)C3)cc2)cc2cn[nH]c12` [Example 21, (3S,4R)-1-((4-(7-methoxy-1H-indazol-5-yl)phenyl)sulfonyl)-4-((5-(trifluoromethyl)pyridin-2-yl)amino)piperidin-3-ol], the IC50 is less than 1 nM.
Take `O=S(=O)(c1ccc(-c2cnc3[nH]ccc3c2C(F)(F)F)cc1)N1CC[C@@H](Nc2ccc(C(F)(F)F)cn2)[C@@H](O)C1` [Example 22, (3S,4R)-1-((4-(4-(trifluoromethyl)-1H-pyrrolo[2,3-b]pyridin-5-yl)phenyl)sulfonyl)-4-((5-(trifluoromethyl)pyridin-2-yl)amino)piperidin-3-ol]: the IC50 was less than 1 nM.
For `O=S(=O)(c1ccc(-c2ccc3[nH]ncc3c2)cc1)N1CC[C@@H](Nc2ccc(C(F)(F)F)cn2)[C@@H](O)C1` [Example 23, (3S,4R)-1-((4-(1H-indazol-5-yl)phenyl)sulfonyl)-4-((5-(trifluoromethyl)pyridin-2-yl)amino)piperidin-3-ol], the IC50 is less than 1 nM.
Regarding `Cc1cc2[nH]ncc2cc1-c1ccc(S(=O)(=O)N2CC[C@@H](Nc3ccc(C(F)(F)F)cn3)[C@@H](O)C2)cc1` [Example 25, (3S,4R)-1-((4-(6-methyl-1H-indazol-5-yl)phenyl)sulfonyl)-4-((5-(trifluoromethyl)pyridin-2-yl)amino)piperidin-3-ol], the IC50 was in the range of 1 to 10 nM.
With `Cc1c(-c2ccc(S(=O)(=O)N3CC[C@@H](Nc4ccc(C(F)(F)F)cn4)[C@@H](O)C3)cc2)ccc2[nH]ncc12` [Example 26, (3S,4R)-1-((4-(4-methyl-1H-indazol-5-yl)phenyl)sulfonyl)-4-((5-(trifluoromethyl)pyridin-2-yl)amino)piperidin-3-ol], the IC50 was less than 1 nM.
Then `NC(=O)c1cncc(-c2ccc(S(=O)(=O)N3CC[C@@H](Nc4ccc(C(F)(F)F)cn4)[C@@H](O)C3)cc2)c1` [Example 27, 5-(4-(((3S,4R)-3-Hydroxy-4-((5-(trifluoromethyl)pyridin-2-yl)amino)piperidin-1-yl)sulfonyl)phenyl)nicotinamide], with 1 to 10 nM; and `NC(=O)c1ccc(-c2ccc(S(=O)(=O)N3CC[C@@H](Nc4ccc(C(F)(F)F)cn4)[C@@H](O)C3)cc2)cn1` [Example 28, 5-(4-(((3S,4R)-3-Hydroxy-4-((5-(trifluoromethyl)pyridin-2-yl)amino)piperidin-1-yl)sulfonyl)phenyl)picolinamide], with less than 1 nM.
Then `CC(C)(C)OC(=O)NCCn1cc(C#N)c2cc(-c3ccc(S(=O)(=O)N4CC[C@@H](Nc5ccc(C(F)(F)F)cn5)[C@@H](O)C4)cc3)cnc21` [Example 29, tert-Butyl (2-(3-cyano-5-(4-(((3S,4R)-3-hydroxy-4-((5-(trifluoromethyl)pyridin-2-yl)amino)piperidin-1-yl)sulfonyl)phenyl)-1H-pyrrolo[2,3-b]pyridin-1-yl)ethyl)carbamate], with less than 1 nM; and `Nc1nc2ccc(-c3ccc(S(=O)(=O)N4CC[C@@H](Nc5ccc(C(F)(F)F)cn5)[C@@H](O)C4)cc3)cc2c(=O)[nH]1` [Example 30, 2-amino-6-(4-(((3S,4R)-3-hydroxy-4-((5-(trifluoromethyl)pyridin-2-yl)amino)piperidin-1-yl)sulfonyl)phenyl)quinazolin-4(3H)-one], with less than 1 nM.
Turning to `NC(=O)c1cc(-c2ccc(S(=O)(=O)N3CC[C@@H](Nc4ccc(C(F)(F)F)cn4)[C@@H](O)C3)cc2)ccn1` [Example 31, 4-(4-(((3S,4R)-3-hydroxy-4-((5-(trifluoromethyl)pyridin-2-yl)amino)piperidin-1-yl)sulfonyl)phenyl)picolinamide], the IC50 is less than 1 nM.
For `N#Cc1c[nH]c2ncc(-c3ccc(S(=O)(=O)N4CC[C@H](Nc5ccc(C(F)(F)F)cn5)[C@H](O)C4)cc3)cc12` [Example 32, 5-(4-(((3R,4S)-3-hydroxy-4-((5-(trifluoromethyl)pyridin-2-yl)amino)piperidin-1-yl)sulfonyl)phenyl)-1H-pyrrolo[2,3-b]pyridine-3-carbonitrile], the IC50 was in the range of 1 to 10 nM.
In the case of `Cc1c(-c2ccc(S(=O)(=O)N3CC[C@@H](Nc4ccc(C#N)cn4)[C@@H](O)C3)cc2)cnc2[nH]ccc12` [Example 33, 6-[[(3S,4R)-3-hydroxy-1-[4-(4-methyl-1H-pyrrolo[2,3-b]pyridin-5-yl)phenyl]sulfonyl-4-piperidyl]amino]pyridine-3-carbonitrile], the IC50 is less than 1 nM.
The value for `N#Cc1ccc(N[C@@H]2CCN(S(=O)(=O)c3ccc(-c4cnc5[nH]cc(C#N)c5c4)cc3)C[C@@H]2O)nc1` [Example 34, 5-[4-[[(3S,4R)-4-[(5-cyano-2-pyridyl)amino]-3-hydroxy-1-piperidyl]sulfonyl]phenyl]-1H-pyrrolo[2,3-b]pyridine-3-carbonitrile] was less than 1 nM.
In the case of `Cc1c(-c2ccc(S(=O)(=O)N3CC[C@@H](Nc4ccc(C(F)(F)F)cn4)[C@@H](O)C3)cc2)ccc2[nH]nc(C#N)c12` [Example 35, 5-(4-(((3S,4R)-3-hydroxy-4-((5-(trifluoromethyl)pyridin-2-yl)amino)piperidin-1-yl)sulfonyl)phenyl)-4-methyl-1H-indazole-3-carbonitrile], the IC50 was less than 1 nM.
Regarding `Cc1cc2[nH]nc(C#N)c2cc1-c1ccc(S(=O)(=O)N2CC[C@@H](Nc3ccc(C(F)(F)F)cn3)[C@@H](O)C2)cc1` [Example 36, 5-(4-(((3S,4R)-3-hydroxy-4-((5-(trifluoromethyl)pyridin-2-yl)amino)piperidin-1-yl)sulfonyl)phenyl)-6-methyl-1H-indazole-3-carbonitrile], the IC50 is less than 1 nM.
The value for `N#Cc1ccc(N[C@@H]2CCN(S(=O)(=O)c3ccc(-c4ccnc(C(N)=O)c4)cc3)C[C@@H]2O)nc1` [Example 37, 4-(4-(((3S,4R)-4-((5-cyanopyridin-2-yl)amino)-3-hydroxypiperidin-1-yl)sulfonyl)phenyl)picolinamide] was less than 1 nM.
Regarding `Nc1n[nH]c2ncc(-c3ccc(S(=O)(=O)N4CC[C@@H](Nc5ccc(C(F)(F)F)cn5)[C@@H](O)C4)cc3)cc12` [Example 38, (3S,4R)-1-((4-(3-amino-1H-pyrazolo[3,4-b]pyridin-5-yl)phenyl)sulfonyl)-4-((5-(trifluoromethyl)pyridin-2-yl)amino)piperidin-3-ol], the IC50 was less than 1 nM.
Take `COC(=O)c1cc(-c2ccc(S(=O)(=O)N3CC[C@@H](Nc4ccc(C(F)(F)F)cn4)[C@@H](O)C3)cc2)ccn1` [Example 39, Methyl 4-(4-(((3S,4R)-3-hydroxy-4-((5-(trifluoromethyl)pyridin-2-yl)amino)piperidin-1-yl)sulfonyl)phenyl)picolinate]: the IC50 was less than 1 nM.
Then `CN(C)C(=O)c1cc(-c2ccc(S(=O)(=O)N3CC[C@@H](Nc4ccc(C(F)(F)F)cn4)[C@@H](O)C3)cc2)ccn1` [Example 40, 4-(4-(((3S,4R)-3-Hydroxy-4-((5-(trifluoromethyl)pyridin-2-yl)amino)piperidin-1-yl)sulfonyl)phenyl)-N,N-dimethylpicolinamide], with 1 to 10 nM.
With `O=C(NCCO)c1cc(-c2ccc(S(=O)(=O)N3CC[C@@H](Nc4ccc(C(F)(F)F)cn4)[C@@H](O)C3)cc2)ccn1` [Example 41], the IC50 was less than 1 nM.
Take `NC(=O)c1ncc(-c2ccc(S(=O)(=O)N3CC[C@@H](Nc4ccc(C(F)(F)F)cn4)[C@@H](O)C3)cc2)s1` [Example 42, 5-(4-(((3S,4R)-3-Hydroxy-4-((5-(trifluoromethyl)pyridin-2-yl)amino)piperidin-1-yl)sulfonyl)phenyl)thiazole-2-carboxamide]: the IC50 was less than 1 nM.
The value for `Cc1cc(-c2ccc(S(=O)(=O)N3CC[C@@H](Nc4ccc(C(F)(F)F)cn4)[C@@H](O)C3)cc2)cc2c(C#N)n[nH]c12` [Example 43, 5-(4-(((3S,4R)-3-hydroxy-4-((5-(trifluoromethyl)pyridin-2-yl)amino)piperidin-1-yl)sulfonyl)phenyl)-7-methyl-1H-indazole-3-carbonitrile] was less than 1 nM.
Then `COc1cc(-c2ccc(S(=O)(=O)N3CC[C@@H](Nc4ccc(C(F)(F)F)cn4)[C@@H](O)C3)cc2)cc(C(N)=O)n1` [Example 44, 4-(4-(((3S,4R)-3-Hydroxy-4-((5-(trifluoromethyl)pyridin-2-yl)amino)piperidin-1-yl)sulfonyl)phenyl)-6-methoxypicolinamide], with less than 1 nM.
In the case of `Cc1nc2[nH]ccc2c(C)c1-c1ccc(S(=O)(=O)N2CC[C@@H](Nc3ccc(C(F)(F)F)cn3)[C@@H](O)C2)cc1` [Example 45, (3S,4R)-1-((4-(4,6-dimethyl-1H-pyrrolo[2,3-b]pyridin-5-yl)phenyl)sulfonyl)-4-((5-(trifluoromethyl)pyridin-2-yl)amino)piperidin-3-ol], the IC50 is less than 1 nM.
